US11420944B2, “Voltage-dependent t-type calcium channel blocker” (Nippon Chemiphar Co., Ltd., priority 2016, dated 2022)
Read-outs that look alike come from different tables or passages of the source.

Key:
CYP3A4 = target: T1, CYP3A4 (Homo sapiens, UniProt P08684); assay: Evaluation of CYP3A4 activity inhibitory action; assay type: in vitro ADME; conditions: Human CYP3A4BR EasyCYP Bactosomes, 7-Benzyloxy-4-(trifluoromethyl)-coumarin
T1 construct: purchased Cypex, Ltd; host or cells: E. coli membranes (Bactosomes)
T1 sequence (P08684 whole entry): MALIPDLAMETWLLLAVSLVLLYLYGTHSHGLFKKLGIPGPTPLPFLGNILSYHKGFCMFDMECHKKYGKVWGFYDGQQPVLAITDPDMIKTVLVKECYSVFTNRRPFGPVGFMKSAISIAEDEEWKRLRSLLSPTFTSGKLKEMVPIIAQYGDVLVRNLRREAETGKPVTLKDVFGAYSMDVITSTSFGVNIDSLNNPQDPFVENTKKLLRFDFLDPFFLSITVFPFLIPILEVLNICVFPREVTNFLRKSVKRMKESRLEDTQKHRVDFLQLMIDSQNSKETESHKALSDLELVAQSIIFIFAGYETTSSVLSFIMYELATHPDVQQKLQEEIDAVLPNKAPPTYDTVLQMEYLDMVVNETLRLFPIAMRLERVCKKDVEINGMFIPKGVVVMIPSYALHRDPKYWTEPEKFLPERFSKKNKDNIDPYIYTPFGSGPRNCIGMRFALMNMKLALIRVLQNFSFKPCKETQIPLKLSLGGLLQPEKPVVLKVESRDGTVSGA
Experimental: Evaluation of CYP3A4 Activity Inhibitory Action
To a 50 mM potassium phosphate buffer solution (pH 7.4), 5 nM Human CYP3A4BR EasyCYP Bactosomes (Cypex, Ltd.), 50 μM 7-Benzyloxy-4-(trifluoromethyl)-coumarin, cofactor mix (0.0081 mM β-NADP^+, 0.4 mM G-6-P, 0.4 mM MgCl2, and 0.2 U/mL G-6-P DH(Y)), and 0.01% Pluronic F-127 were added, and the mixture was incubated for 45 minutes at 37° C. The reaction was initiated by adding the cofactor mix. After the incubation, 0.5 M Tris base/acetonitrile (20:80) was added thereto as a reaction terminating liquid, and the resulting mixture was stirred. Subsequently, the fluorescence intensity (excitation: 405 nm, emission: 535 nm) was measured. The reaction was carried out in duplicate. The results are presented as the inhibition rate at 10 μM of the test compound.

human Cav3.2 channels = target: T2, human Cav3.2 channels (Homo sapiens, UniProt O95180); assay: Intracellular calcium concentration measurement (Fluo-4 AM) in stable cells expressing human Cav3.2 channels, buffer A / buffer B; assay type: cell-based
T2 construct: expressed in transfected cells; host or cells: HEK293 cells (ATCC No. CRL-1573), plasmid pcDNA3.1(+)
T2 sequence (O95180 whole entry): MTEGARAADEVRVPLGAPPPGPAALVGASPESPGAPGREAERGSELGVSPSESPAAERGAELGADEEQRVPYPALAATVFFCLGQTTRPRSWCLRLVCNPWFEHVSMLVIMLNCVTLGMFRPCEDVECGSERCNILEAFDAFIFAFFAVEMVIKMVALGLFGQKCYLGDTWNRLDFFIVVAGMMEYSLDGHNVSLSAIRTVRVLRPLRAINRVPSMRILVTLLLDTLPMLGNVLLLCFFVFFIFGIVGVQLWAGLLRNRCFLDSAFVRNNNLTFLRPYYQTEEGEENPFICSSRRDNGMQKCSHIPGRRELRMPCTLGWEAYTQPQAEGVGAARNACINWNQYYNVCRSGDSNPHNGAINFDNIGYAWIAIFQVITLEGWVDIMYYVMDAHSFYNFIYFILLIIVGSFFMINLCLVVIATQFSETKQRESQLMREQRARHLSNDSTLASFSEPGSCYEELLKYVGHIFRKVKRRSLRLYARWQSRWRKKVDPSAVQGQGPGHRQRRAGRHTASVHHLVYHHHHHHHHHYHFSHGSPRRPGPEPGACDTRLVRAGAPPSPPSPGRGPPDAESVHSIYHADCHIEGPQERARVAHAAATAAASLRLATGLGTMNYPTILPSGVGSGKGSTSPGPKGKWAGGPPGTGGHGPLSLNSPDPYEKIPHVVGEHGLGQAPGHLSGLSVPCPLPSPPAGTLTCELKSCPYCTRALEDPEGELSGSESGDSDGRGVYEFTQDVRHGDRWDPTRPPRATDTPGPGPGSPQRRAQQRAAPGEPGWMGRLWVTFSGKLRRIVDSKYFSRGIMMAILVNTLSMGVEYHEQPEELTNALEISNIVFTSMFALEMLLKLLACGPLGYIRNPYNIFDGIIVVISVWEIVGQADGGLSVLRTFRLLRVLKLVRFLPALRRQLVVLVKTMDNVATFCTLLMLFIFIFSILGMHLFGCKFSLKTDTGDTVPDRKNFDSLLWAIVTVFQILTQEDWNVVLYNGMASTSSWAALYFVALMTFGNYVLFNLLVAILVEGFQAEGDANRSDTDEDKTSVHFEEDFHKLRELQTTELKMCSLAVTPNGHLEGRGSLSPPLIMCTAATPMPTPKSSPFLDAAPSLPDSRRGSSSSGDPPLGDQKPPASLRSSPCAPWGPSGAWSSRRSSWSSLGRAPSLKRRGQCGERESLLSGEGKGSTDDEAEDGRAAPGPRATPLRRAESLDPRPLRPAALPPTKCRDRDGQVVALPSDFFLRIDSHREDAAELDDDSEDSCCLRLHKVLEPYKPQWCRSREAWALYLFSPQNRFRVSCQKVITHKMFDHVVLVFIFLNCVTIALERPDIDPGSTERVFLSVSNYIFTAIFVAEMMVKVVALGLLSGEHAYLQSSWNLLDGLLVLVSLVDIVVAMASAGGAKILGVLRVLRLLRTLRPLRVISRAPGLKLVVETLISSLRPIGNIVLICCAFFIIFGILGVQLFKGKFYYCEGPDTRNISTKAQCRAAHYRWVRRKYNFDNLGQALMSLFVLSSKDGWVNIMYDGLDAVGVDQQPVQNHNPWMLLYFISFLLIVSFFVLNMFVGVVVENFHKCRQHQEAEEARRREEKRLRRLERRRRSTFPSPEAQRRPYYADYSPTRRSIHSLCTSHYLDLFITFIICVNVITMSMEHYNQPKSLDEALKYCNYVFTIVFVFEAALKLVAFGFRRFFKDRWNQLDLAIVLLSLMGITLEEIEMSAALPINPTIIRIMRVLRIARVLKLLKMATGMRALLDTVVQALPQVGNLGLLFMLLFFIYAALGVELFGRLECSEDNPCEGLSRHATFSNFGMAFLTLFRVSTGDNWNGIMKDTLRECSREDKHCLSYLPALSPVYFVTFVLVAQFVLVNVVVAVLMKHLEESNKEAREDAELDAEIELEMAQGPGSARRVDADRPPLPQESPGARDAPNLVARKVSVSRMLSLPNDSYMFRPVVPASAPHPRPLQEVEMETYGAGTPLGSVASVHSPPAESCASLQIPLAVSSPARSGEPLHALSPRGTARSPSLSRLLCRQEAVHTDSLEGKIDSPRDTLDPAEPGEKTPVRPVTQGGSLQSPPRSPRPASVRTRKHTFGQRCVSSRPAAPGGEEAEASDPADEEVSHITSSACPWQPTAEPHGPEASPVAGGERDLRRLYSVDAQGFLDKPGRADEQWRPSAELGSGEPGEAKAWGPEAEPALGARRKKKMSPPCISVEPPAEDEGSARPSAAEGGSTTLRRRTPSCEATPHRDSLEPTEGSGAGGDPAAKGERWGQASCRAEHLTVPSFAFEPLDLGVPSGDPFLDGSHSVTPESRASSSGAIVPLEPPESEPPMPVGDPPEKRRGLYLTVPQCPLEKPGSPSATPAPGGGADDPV
How it was run: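 State-dependent Cav3.2 inhibition compared in two buffers differing in potassium equilibrium potential (−92 vs −110 mV). Stable HEK293 line, Fluo-4 dye; compound 15 min, room temperature, dark, then KCl addition (83.8 or 91.8 mM) triggers calcium influx read 10 s; IC50 from peak increment over baseline.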

[1] = Tables 2 to 6, buffer A, equilibrium potential of potassium −92 mV, read-out: Inhibitory action of buffer A (inactivated state)

Row | Compound | CYP3A4 activity inhibition ratio at 10 μM of test compound (CYP3A4) | IC50 (human Cav3.2 channels; [1]) | IC50 (human Cav3.2 channels; Table 1, buffer A, equilibrium potential of potassium −92 mV, read-out: Inhibitory action of buffer A (inactivated state)) | IC50 (human Cav3.2 channels; Table 1, buffer B, equilibrium potential of potassium −110 mV, read-out: Inhibitory action of buffer B (resting state or closed state))
1 | C[C@@H](NC(=O)C1CC1c1nc2ccccc2[nH]1)c1ccc(C(=O)OC(C)(C)C)s1 (stereo partly drawn) [Example 25, Trans-5-((1R)-1-(2-(1H-benzo[d]imidazol-2-yl)cyclopropane-1-carboxamido)ethyl)thiophene-2-carboxylic acid tert-butyl ester] | 8.7% |  |  | 
2 | CC(C(=O)Nc1ccccc1)N1CC[C@@H](C(=O)N[C@H](C)c2ccc(OCC(F)(F)F)s2)C1 (stereo partly drawn) [Example 24, (3R)-1-(1-oxo-1-(phenylamino)propan-2-yl)-N—((R)-1-(5-(2,2,2-trifluoroethoxy)thiophen-2-yl)ethyl)pyrrolidine-3-carboxamide] | 51.1% | 100 to 1000 nM |  | 
3 | C[C@@H](NC(=O)[C@H]1C[C@@H]1c1nc2ccccc2[nH]1)c1ccc(C(=O)N2CCCC2)s1 [Example 33, Trans-2-(1H-benzo[d]imidazol-2-yl)-N—((R)-1-(5-(pyrrolidine-1-carbonyl)thiophen-2-yl)ethyl)cyclopropane-1-carboxamide] | −12.8% | 100 to 1000 nM |  | 
4 | C[C@@H](NC(=O)[C@@H]1CCN(c2nc3ccccc3[nH]2)C1)c1ccc(OCC(F)(F)F)s1 [Example 12] | 84.4% |  | 100 to 1000 nM | 1000 to 10000 nM
5 | C[C@@H](NC(=O)C1CC1c1c[nH]c2ccccc12)c1ccc(OCC(F)(F)F)s1 (single isomer, unassigned) [Example 21B] | 23.3% | 100 to 1000 nM |  | 
6 | C[C@@H](NC(=O)C1CC1c1ccc2ccccc2n1)c1ccc(OCC(F)(F)F)s1 (stereo partly drawn) [Example 34, Trans-2-(quinolin-2-yl)-N—((R)-1-(5-(2,2,2-trifluoroethoxy)thiophen-2-yl)ethyl)cyclopropane-1-carboxamide] | 19.6% |  |  | 
7 | C[C@@H](NC(=O)[C@@H]1CCN(CC(=O)Nc2ccccc2)C1)c1ccc(OCC(F)(F)F)s1.Cl [Example 17] | 31.8% |  |  | 
8 | C[C@@H](NC(=O)C1CC1c1c[nH]c2ccccc12)c1ccc(OCC(F)(F)F)s1 (single isomer, unassigned) [Example 21A] | 16.9% | 100 to 1000 nM |  | 
9 | C[C@@H](NC(=O)C1CC1c1nc(-c2ccccc2)c[nH]1)c1ccc(OCC(F)(F)F)s1 (single isomer, unassigned) [Example 31A] | 7.0% | 100 to 1000 nM |  | 
10 | C[C@@H](NC(=O)C1CC1c1nccn1C)c1ccc(OCC(F)(F)F)s1 (mixture of isomers) [Example 20, Trans-2-(1-methyl-1H-imidazol-2-yl)-N—((R)-1-(5-(2,2,2-trifluoroethoxy)thiophen-2-yl)ethyl)cyclopropane-1-carboxamide] | 27.4% | 1000 to 10000 nM |  | 
11 | CCN(CC)C(=O)c1ccc([C@@H](C)NC(=O)C2CC2c2nc3ccccc3[nH]2)s1 (stereo in doubt) [Example 32, Trans-5-((1R)-1-(2-(1H-benzo[d]imidazol-2-yl)cyclopropane-1-carboxamido)ethyl)-N,N-diethylthiophene-2-carboxamide] | 23.3% | 100 to 1000 nM |  | 

Results, then the compound that gave them:

Row | CYP3A4 activity inhibition ratio at 10 μM of test compound (CYP3A4) | IC50 (human Cav3.2 channels; [1]) | IC50 (human Cav3.2 channels; Table 1, buffer A, equilibrium potential of potassium −92 mV, read-out: Inhibitory action of buffer A (inactivated state)) | IC50 (human Cav3.2 channels; Table 1, buffer B, equilibrium potential of potassium −110 mV, read-out: Inhibitory action of buffer B (resting state or closed state)) | Compound
12 | 11.7% | ≤ 100 nM |  |  | C[C@@H](NC(=O)[C@H]1C[C@@H]1c1nc2ccccc2[nH]1)c1cc2ccc(C(F)(F)F)cc2o1 [Example 123, (1S,2S)-2-(1H-benzo[d]imidazol-2-yl)-N—((R)-1-(6-(trifluoromethyl)benzofuran-2-yl)ethyl)cyclopropane-1-carboxamide]
13 | 24.1% | 100 to 1000 nM |  |  | C[C@@H](NC(=O)[C@H]1C[C@@H]1c1nc2ccccc2[nH]1)c1cc2cc(C(F)(F)F)ccc2o1 [Example 109, (1S,2S)-2-(1H-benzo[d]imidazol-2-yl)-N—((R)-1-(5-(trifluoromethyl)benzofuran-2-yl)ethyl)cyclopropane-1-carboxamide]
14 | 53.5% | 100 to 1000 nM |  |  | C[C@@H](NC(=O)[C@H]1C[C@@H]1c1nc2ccccc2[nH]1)c1ccc2cc[nH]c2c1 [Example 58, (1S,2S)—N—((R)-1-(1H-indol-6-yl)ethyl)-2-(1H-benzo[d]imidazol-2-yl)cyclopropane-1-carboxamide]
15 | −1.1% | ≤ 100 nM |  |  | CCn1c(C2CC2C(=O)N[C@H](C)c2ccc(OCC(F)(F)F)s2)nc2ccccc21 (single isomer, unassigned) [Example 54]
16 | −1.4% |  |  |  | CCn1c(C2CC2C(=O)N[C@H](C)c2cnc(OCC(F)(F)F)s2)nc2ccccc21 (stereo partly drawn) [Example 57, Trans-2-(1-ethyl-1H-benzo[d]imidazol-2-yl)-N—((R)-1-(2-(2,2,2-trifluoroethoxy)thiazol-5-yl)ethyl)cyclopropane-1-carboxamide]
17 | 56.0% | 100 to 1000 nM |  |  | C[C@H](c1cc2ccc(F)cc2o1)N(C)C(=O)[C@H]1C[C@@H]1c1nc2ccccc2[nH]1 [Example 129, (1S,2S)-2-(1H-benzo[d]imidazol-2-yl)-N—((R)-1-(6-fluorobenzofuran-2-yl)ethyl)-N-methylcyclopropane-1-carboxamide]
18 | 55.7% |  |  |  | C[C@@H](NC(=O)Cc1ccc(C2CC2)cc1)c1ccc(OCC(F)(F)F)cn1 [TTA-A2, reference compound]
19 | 28.6% | ≤ 100 nM |  |  | CC(C)[C@@H](NC(=O)[C@H]1C[C@@H]1c1nc2ccccc2[nH]1)c1cc2ccc(F)cc2o1 [Example 124, (1S,2S)-2-(1H-benzo[d]imidazol-2-yl)-N—((R)-1-(6-fluorobenzofuran-2-yl)-2-methylpropyl)cyclopropane-1-carboxamide]
20 | 3.0% |  |  |  | C[C@@H](NC(=O)C1CC1c1nc2cc(Cl)ccc2[nH]1)c1ccc(OCC(F)(F)F)s1 (stereo partly drawn) [Example 53, Trans-2-(5-chloro-1H-benzo[d]imidazol-2-yl)-N—((R)-1-(5-(2,2,2-trifluoroethoxy)thiophen-2-yl)ethyl)cyclopropane-1-carboxamide]
21 | 25.0% | ≤ 100 nM |  |  | C[C@@H](NC(=O)[C@H]1C[C@@H]1c1nc2cc(F)ccc2[nH]1)c1cc2cc(F)ccc2o1 [Example 125, (1S,2S)-2-(5-fluoro-1H-benzo[d]imidazol-2-yl)-N—((R)-1-(5-fluorobenzofuran-2-yl)ethyl)cyclopropane-1-carboxamide]
